# Measured values published in patent US9289496B2, “Lipid dipeptide and gel” (Nissan Chemical Industries, Ltd., priority 2008, dated 2016).
# Residues, ends and D or L forms follow the SMILES beside them.
# Tests used:
# Format in all cases: physicochemical
# [1] = Evaluation of gelation of free N-palmitoyl-Gly-His in propylene glycol (PG) solution; parameters: key: a sample that formed a gel is shown as “O”; a sample that partially formed a gel is shown as “A”; a sample that formed no gel is shown as “X”
# Experimental: (§1) Free N-palmitoyl-Gly-His prepared in Example 4 was placed into a screw tube (Maruemu No. 1, manufactured by Maruemu Corp.). Each of the propylene solutions having various concentrations shown in Table 6 was added into the screw tube so as to have a free N-palmitoyl-Gly-His concentration of 0.25%, 0.5%, or 1% (w/v). The mixture was heated at 100° C. with a constant temperature heat block (manufactured by Nippon Genetics Co., Ltd.), and then allowed to stand at room temperature.
# In Table, a sample that formed a gel is shown as “O”, a sample that partially formed a gel is shown as “A”, and a sample that formed no gel is shown as “X”.
# [2] = Evaluation of gelation of free N-palmitoyl-Gly-His in glycerin solution
# Experimental: as §1, with “of the glycerin solutions having” for “of the propylene solutions having”, “in Table 5 was added” for “in Table 6 was added”, “concentration of 0.2%, 0.25%, 0.5%,” for “concentration of 0.25%, 0.5%,”
# (§2) In Table, a sample that formed a gel is shown as “O”, a sample that partially formed a gel is shown as “A”, and a sample without evaluation is shown as “-”.
# [3] = Gelation of free N-palmitoyl-Gly-His in 65% (w/w) propylene glycol aqueous solution containing lactic acid and potassium lactate; details: 65% (w/w) propylene glycol aqueous solution with 5% (w/w) potassium lactate:lactic acid (95:5)
# Experimental: (§3) Free N-palmitoyl-Gly-His (25 mg) obtained in Example 4 was placed in a screw tube (Maruemu Corp., No. 7). Sixty-five percent (w/w) propylene glycol aqueous solution was added so as to have a concentration of 0.25% (w/v), and a mixture of potassium lactate:lactic acid (95:5) was further added so as to have a concentration of 5% (w/w) with respect to the whole solution. The mixture was heated with a dry bath incubator (manufactured by First Gene) at 75° C. for 10 minutes. The obtained solution was transferred into a spray vial (Maruemu Corp., No. 3L), and allowed to cool to room temperature.
# as §3, with “N-palmitoyl-Gly-His (80” for “N-palmitoyl-Gly-His (25”, “placed into” for “placed in”, “of 0.2%” for “of 0.25%”, “at 93°” for “at 75°”, “for 5” for “for 10”
# [4] = Evaluation of gelation of free N-palmitoyl-Gly-His in solution containing inorganic salt, amino acid or organic substance
# Experimental: as §1, with “An aqueous solution dissolving each additive described” for “Each of the propylene solutions having various concentrations shown”, “7” for “6”, “0.5%” for “0.25%, 0.5%,”
# as §2
structure (smiles),measurement,setting,value
"CCCCCCCCCCCCCCCC(=O)NCC(=O)N[C@@H](Cc1c[nH]cn1)C(=O)O [Example 4, N-Palmitoyl-Gly-His] (HELM PEPTIDE1{[CCCCCCCCCCCCCCCC(=O)[*:2]].G.H}$$$$V2.0)",Gelation,"[1]; 0.25% (w/v), mass fraction PG/water + PG 0.1",Δ
same,Gelation,"[1]; 0.25% (w/v), mass fraction PG/water + PG 0.2",Δ
same,Gelation,"[1]; 0.25% (w/v), mass fraction PG/water + PG 0.3",Δ
same,Gelation,"[1]; 0.25% (w/v), mass fraction PG/water + PG 0.5",◯
same,Gelation,"[1]; 0.25% (w/v), mass fraction PG/water + PG 0.7",◯
same,Gelation,"[1]; 0.25% (w/v), mass fraction PG/water + PG 1.0",X
same,Gelation,"[1]; 0.5% (w/v), mass fraction PG/water + PG 0.1",Δ
same,Gelation,"[1]; 0.5% (w/v), mass fraction PG/water + PG 0.2",Δ
same,Gelation,"[1]; 0.5% (w/v), mass fraction PG/water + PG 0.3",◯
same,Gelation,"[1]; 0.5% (w/v), mass fraction PG/water + PG 0.5",◯
same,Gelation,"[1]; 0.5% (w/v), mass fraction PG/water + PG 0.7",◯
same,Gelation,"[1]; 0.5% (w/v), mass fraction PG/water + PG 1.0",X
same,Gelation,"[1]; 1.0% (w/v), mass fraction PG/water + PG 0.1",◯
same,Gelation,"[1]; 1.0% (w/v), mass fraction PG/water + PG 0.2",◯
same,Gelation,"[1]; 1.0% (w/v), mass fraction PG/water + PG 0.3",◯
same,Gelation,"[1]; 1.0% (w/v), mass fraction PG/water + PG 0.5",◯
same,Gelation,"[1]; 1.0% (w/v), mass fraction PG/water + PG 0.7",◯
same,Gelation,"[1]; 1.0% (w/v), mass fraction PG/water + PG 1.0",X
same,Gelation,"[2]; 0.2% (w/v), mass fraction glycerin/water + glycerin 0.1",Δ
same,Gelation,"[2]; 0.2% (w/v), mass fraction glycerin/water + glycerin 0.3",Δ
same,Gelation,"[2]; 0.2% (w/v), mass fraction glycerin/water + glycerin 0.5",◯
same,Gelation,"[2]; 0.2% (w/v), mass fraction glycerin/water + glycerin 0.6",◯
same,Gelation,"[2]; 0.2% (w/v), mass fraction glycerin/water + glycerin 0.7",◯
same,Gelation,"[2]; 0.25% (w/v), mass fraction glycerin/water + glycerin 0.1",◯
same,Gelation,"[2]; 0.25% (w/v), mass fraction glycerin/water + glycerin 0.3",◯
same,Gelation,"[2]; 0.25% (w/v), mass fraction glycerin/water + glycerin 0.4",◯
same,Gelation,"[2]; 0.25% (w/v), mass fraction glycerin/water + glycerin 0.5",◯
same,Gelation,"[2]; 0.25% (w/v), mass fraction glycerin/water + glycerin 0.6",◯
same,Gelation,"[2]; 0.25% (w/v), mass fraction glycerin/water + glycerin 0.7",◯
same,Gelation,"[2]; 0.5% (w/v), mass fraction glycerin/water + glycerin 0.1",◯
same,Gelation,"[2]; 0.5% (w/v), mass fraction glycerin/water + glycerin 0.3",◯
same,Gelation,"[2]; 0.5% (w/v), mass fraction glycerin/water + glycerin 0.4",◯
same,Gelation,"[2]; 0.5% (w/v), mass fraction glycerin/water + glycerin 0.5",◯
same,Gelation,"[2]; 0.5% (w/v), mass fraction glycerin/water + glycerin 0.6",◯
same,Gelation,"[2]; 0.5% (w/v), mass fraction glycerin/water + glycerin 0.7",◯
same,Gelation,"[2]; 1.0% (w/v), mass fraction glycerin/water + glycerin 0.1",◯
same,Gelation,"[2]; 1.0% (w/v), mass fraction glycerin/water + glycerin 0.3",◯
same,Gelation,"[2]; 1.0% (w/v), mass fraction glycerin/water + glycerin 0.4",◯
same,Gelation,"[2]; 1.0% (w/v), mass fraction glycerin/water + glycerin 0.5",◯
same,Gelation,"[2]; 1.0% (w/v), mass fraction glycerin/water + glycerin 0.6",◯
same,Gelation,"[2]; 1.0% (w/v), mass fraction glycerin/water + glycerin 0.7",◯
same,Gelation,"[3]; 0.2% (w/v), heated 93° C., 5 minutes",gelation
same,Gelation,"[3]; 0.25% (w/v), heated 75° C., 10 minutes",gelation
same,Gelation,"[4]; 0.5% (w/v), aqueous solution of Alanine 0.1 wt %",◯
same,Gelation,"[4]; 0.5% (w/v), aqueous solution of Aspartic acid 0.27 wt %",◯
same,Gelation,"[4]; 0.5% (w/v), aqueous solution of Glycine 0.1 wt %",◯
same,Gelation,"[4]; 0.5% (w/v), aqueous solution of KCl 0.1 wt %",Δ
same,Gelation,"[4]; 0.5% (w/v), aqueous solution of KCl 0.5 wt %",Δ
same,Gelation,"[4]; 0.5% (w/v), aqueous solution of Lysine hydrochloride 0.1 wt %",Δ
same,Gelation,"[4]; 0.5% (w/v), aqueous solution of NaCl 0.1 wt %",Δ
same,Gelation,"[4]; 0.5% (w/v), aqueous solution of NaCl 0.5 wt %",◯
same,Gelation,"[4]; 0.5% (w/v), aqueous solution of Phenoxyethanol 0.25 wt %",◯
same,Gelation,"[4]; 1.0% (w/v), aqueous solution of KCl 0.1 wt %",◯
same,Gelation,"[4]; 1.0% (w/v), aqueous solution of KCl 0.5 wt %",◯
same,Gelation,"[4]; 1.0% (w/v), aqueous solution of NaCl 0.1 wt %",◯
same,Gelation,"[4]; 1.0% (w/v), aqueous solution of NaCl 0.5 wt %",◯
same,Gelation,"[4]; 1.0% (w/v), aqueous solution of Phenoxyethanol 0.25 wt %",◯
